Like-named read-outs stand apart in the source and are kept apart here.
Key:
A. flavus = assay: microbe, parasite or virus in culture; type: cell-based, Aspergillus flavus; settings: 10 to 100 µM; complexes compared with their ligand
[1] = test system: aflatoxin accumulation by A. flavus; assay: microbe, parasite or virus in culture; type: cell-based, Aspergillus flavus; settings: Aspergillus flavus
[2] = Cytotoxicity assay (CellTiter 96 AQueous One) on Crl1790; type: cell-based, human; settings: human, Crl1790 (CCD 841 CoN) normal colon cells, Crl1790, 24 h, dose 0 = 100.00, read-out: Growth inhibition data
Protocol: (§1) The best antifungal and/or antiaflatoxigenic compounds were tested to determine their cytotoxic activity against human normal cell lines deriving from lung (HFL1, ATCC and CCL-153), skin (Hs27, ATCC, CRL1634) and colon (Crl1790, ATCC, CCD 841 CoN) and a cell line deriving from a hematological tumor (U937, ATCC and CRL-3253). These different cell lines have been chosen to simulate the different human exposition routes to pesticide. Cell culture conditions have been previously reported. Compound cytotoxicity was determined using CellTiter 96® AQueous One Solution Cell Proliferation Assay (Promega Corporation, Madison, WI, USA). The very detailed protocol was described by Bartoli et al.. In brief, cells were seeded in a 96-well plate at a density of 5000 cells/well and after 24 h cells were treated with different concentrations of the compounds (0.5–1–5–10–50–100 µM). After the treatment period (24 h), the CellTiter Reagent was added to each well (20 µL/well) and the plate incubated for 4 h at 37 °C. The plate was then read at 485 nm in a multiwell plate reader (TECAN SpectraFluor Plus, Männedorf, Switzerland).

Crl1790 cells = assay: as above; type: cell-based, human; settings: Crl1790 cells, 24 h, only at the highest concentration (100 µM)
Protocol: as §1

[3] = Cytotoxicity assay (CellTiter 96 AQueous One) on HFL1; type: cell-based, human; settings: human, HFL1 normal lung cells, HFL1, 24 h, dose 0 = 100.00, read-out: Growth inhibition data
Protocol: as §1

HFL1 cells = assay: as above; type: cell-based, human; settings: HFL1 cells, 24 h treatment
Protocol: as §1

[4] = Cytotoxicity assay (CellTiter 96 AQueous One) on U937; type: cell-based, human; settings: human, U937 cells (hematological tumor line), U937, 24 h, dose 0 = 100.00, read-out: Growth inhibition data
Protocol: as §1

U937 cells [5] = assay: as above; type: cell-based, human; settings: U937 cells, 24 h treatment
Protocol: as §1

U937 cells [6] = assay: Alkaline Comet Assay; type: cell-based, human; settings: 24 h treatment, 25-100 µM
Protocol: Our standard protocol for the Alkaline Comet Assay (pH > 13) was previously described in great detail. The DNA-damaging effects of non-cytotoxic molecules were evaluated on U937 cells using 25 μM as the lowest concentration and 100 µM as the highest for 24 h treatment. After exposure, cell viability was checked using the trypan blue exclusion method: a viability of at least 70% compared to the negative control (DMSO) was used as a cut-off for further evaluating the level of DNA damage. After electrophoresis (DNA unwinding: 20 min; electrophoresis: 20 min, 0.78 V cm^−1, 300 mA), nucleoids stained with ethidium bromide (75 µL, 10 µg/mL) were examined with a Leica DMLS fluorescence microscope (excitation filter BP 515–560 nm, barrier filter LP 580 nm), using the software Comet Assay IV (Perceptive Instruments Ltd., Suffolk, UK). Alkaline Comet assay results are expressed as tail intensity percentage that measures the percentage of total cellular DNA found in the tail of each comet.

A. cepa root cells = settings: for MN (micronuclei frequency): NC 1.10 ± 1.28; for CA (aberrated cells / total cells in mitosis): NC 1.2
Protocol: To detect micronuclei and chromosomal aberrations six equal-sized pre-germinated young bulbs per sample were exposed for 24 h to sample dilutions. The bulbs dedicated to the micronuclei test underwent an additional treatment in the saline solution for 44 h of recovery time to cover two rounds of mitosis so that damage induced in chromosomes during mitosis to be visible as micronuclei in interphase cells. Then all the roots were fixed in acetic acid and ethanol (1:3) for 24 h and lastly stored in 70% ethanol. The negative control was DMSO in Rank’s solution (the dose of DMSO corresponding to volume of samples) and positive control was maleic hydrazide (10^−2 M, 6 h exposure). […] All experiments were performed in duplicate.

S. typhimurium TA98 = settings: for TA98 + S9 revertants/plate: NC 26.5 ± 5.4; for TA98 revertants/plate: NC 15.7 ± 4.9
S. typhimurium TA100 = settings: for TA100 + S9 revertants/plate: NC 106.5 ± 11.9; for TA100 revertants/plate: NC 95.8 ± 5.5
[7] = read-out: A.I. (%) (aflatoxin accumulation inhibition)

Compound: CC(=NNC(N)=S)c1cccs1 [2-actpTS, 2-acetylthiophenethiosemicarbazone]
- impact on fungal growth (A. flavus): modest inhibitory activity
- inhibition at 50 µM [1, 7]: 58.3%
- inhibition at 100 µM [1, 7]: 88.4%
- inhibition at 10 µM ([1]; read-out: percentage of aflatoxin accumulation inhibition): 23%
- viability at 24 h, 0.5 µM ([2]; 0.5 µM): 100 ± 3.63%
- viability at 24 h, 1 µM ([2]; 1 µM): 95.1 ± 7.76%
- viability at 24 h, 5 µM ([2]; 5 µM): 88.4 ± 2.25%
- viability at 24 h, 10 µM ([2]; 10 µM): 89.1 ± 5.24%
- viability at 24 h, 50 µM ([2]; 50 µM): 81.8 ± 3.48%
- viability at 24 h, 100 µM ([2]; 100 µM): 62 ± 4.6%
- cytotoxic activity (Crl1790 cells): mild cytotoxic activity
- viability at 24 h, 0.5 µM ([3]; 0.5 µM): 100 ± 11.1%
- viability at 24 h, 1 µM ([3]; 1 µM): 100 ± 6.11%
- viability at 24 h, 5 µM ([3]; 5 µM): 100 ± 5.74%
- viability at 24 h, 10 µM ([3]; 10 µM): 100 ± 6.76%
- viability at 24 h, 50 µM ([3]; 50 µM): 100 ± 4.53%
- viability at 24 h, 100 µM ([3]; 100 µM): 92.5 ± 3.49%
- 50% inhibition of cell proliferation (HFL1 cells): did not induce 50% inhibition of cell proliferation
- viability at 24 h, 0.5 µM ([4]; 0.5 µM): 100 ± 9.43%
- viability at 24 h, 1 µM ([4]; 1 µM): 100 ± 4.23%
- viability at 24 h, 5 µM ([4]; 5 µM): 100 ± 6.71%
- viability at 24 h, 10 µM ([4]; 10 µM): 100 ± 7.06%
- viability at 24 h, 50 µM ([4]; 50 µM): 100 ± 3.6%
- viability at 24 h, 100 µM ([4]; 100 µM): 94.7 ± 8.15%
- 50% inhibition of cell proliferation (U937 cells [5]): did not induce 50% inhibition of cell proliferation
- DNA damage in Alkaline Comet Assay (U937 cells [6]): did not induce significant DNA damage
- MN (micronuclei frequency) (A. cepa root cells; 10 µM): 1.20 ± 0.83%
- CA (aberrated cells / total cells in mitosis) (A. cepa root cells; 10 µM): 2.7%
- MN (micronuclei frequency) (A. cepa root cells; 25 µM): 1.40 ± 1.14%
- CA (aberrated cells / total cells in mitosis) (A. cepa root cells; 25 µM): 4.7%
- MN (micronuclei frequency) (A. cepa root cells; 50 µM): 2.00 ± 1.58%
- CA (aberrated cells / total cells in mitosis) (A. cepa root cells; 50 µM): 6.3%
- toxicity to roots in the micronuclei test (A. cepa root cells; 100 µM dose): highly toxic
- CA (aberrated cells / total cells in mitosis) (A. cepa root cells; 100 µM): 6.0%
- TA98 + S9 MR (mutagenicity ratio) (S. typhimurium TA98; +S9, 0.1 µM/plate): 0.9
- TA98 + S9 revertants/plate (S. typhimurium TA98; +S9, 0.1 µM/plate): 25.0 ± 0.0 revertants/plate
- TA98 + S9 MR (mutagenicity ratio) (S. typhimurium TA98; +S9, 1.0 µM/plate): 1.4
- TA98 + S9 revertants/plate (S. typhimurium TA98; +S9, 1.0 µM/plate): 37.0 ± 4.2 revertants/plate
- TA98 + S9 MR (mutagenicity ratio) (S. typhimurium TA98; +S9, 10.0 µM/plate): 1.3
- TA98 + S9 revertants/plate (S. typhimurium TA98; +S9, 10.0 µM/plate): 34.0 ± 2.8 revertants/plate
- TA98 + S9 MR (mutagenicity ratio) (S. typhimurium TA98; +S9, 50.0 µM/plate): 1.2
- TA98 + S9 revertants/plate (S. typhimurium TA98; +S9, 50.0 µM/plate): 31.5 ± 6.4 revertants/plate
- TA98 + S9 MR (mutagenicity ratio) (S. typhimurium TA98; +S9, 100.0 µM/plate): 1.2
- TA98 + S9 revertants/plate (S. typhimurium TA98; +S9, 100.0 µM/plate): 32.0 ± 2.8 revertants/plate
- TA98 MR (mutagenicity ratio) (S. typhimurium TA98; -S9, 0.1 µM/plate): 1.9
- TA98 revertants/plate (S. typhimurium TA98; -S9, 0.1 µM/plate): 29.5 ± 3.5 revertants/plate
- TA98 MR (mutagenicity ratio) (S. typhimurium TA98; -S9, 1.0 µM/plate): 1.5
- TA98 revertants/plate (S. typhimurium TA98; -S9, 1.0 µM/plate): 23.5 ± 6.4 revertants/plate
- TA98 MR (mutagenicity ratio) (S. typhimurium TA98; -S9, 10.0 µM/plate): 1.0
- TA98 revertants/plate (S. typhimurium TA98; -S9, 10.0 µM/plate): 16.0 ± 1.4 revertants/plate
- TA98 MR (mutagenicity ratio) (S. typhimurium TA98; -S9, 50.0 µM/plate): 1.4
- TA98 revertants/plate (S. typhimurium TA98; -S9, 50.0 µM/plate): 22.5 ± 3.5 revertants/plate
- TA98 MR (mutagenicity ratio) (S. typhimurium TA98; -S9, 100.0 µM/plate): 1.3
- TA98 revertants/plate (S. typhimurium TA98; -S9, 100.0 µM/plate): 21.0 ± 0.0 revertants/plate
- TA100 + S9 MR (mutagenicity ratio) (S. typhimurium TA100; +S9, 0.1 µM/plate): 0.9
- TA100 + S9 revertants/plate (S. typhimurium TA100; +S9, 0.1 µM/plate): 98.0 ± 24.0 revertants/plate
- TA100 + S9 MR (mutagenicity ratio) (S. typhimurium TA100; +S9, 1.0 µM/plate): 1.0
- TA100 + S9 revertants/plate (S. typhimurium TA100; +S9, 1.0 µM/plate): 104.0 ± 15.6 revertants/plate
- TA100 + S9 MR (mutagenicity ratio) (S. typhimurium TA100; +S9, 10.0 µM/plate): 1.0
- TA100 + S9 revertants/plate (S. typhimurium TA100; +S9, 10.0 µM/plate): 107.5 ± 0.7 revertants/plate
- TA100 + S9 MR (mutagenicity ratio) (S. typhimurium TA100; +S9, 50.0 µM/plate): 0.9
- TA100 + S9 revertants/plate (S. typhimurium TA100; +S9, 50.0 µM/plate): 90.5 ± 13.4 revertants/plate
- TA100 + S9 MR (mutagenicity ratio) (S. typhimurium TA100; +S9, 100.0 µM/plate): 0.8
- TA100 + S9 revertants/plate (S. typhimurium TA100; +S9, 100.0 µM/plate): 88.0 ± 8.5 revertants/plate
- TA100 MR (mutagenicity ratio) (S. typhimurium TA100; -S9, 0.1 µM/plate): 1.0
- TA100 revertants/plate (S. typhimurium TA100; -S9, 0.1 µM/plate): 92.0 ± 14.1 revertants/plate
- TA100 MR (mutagenicity ratio) (S. typhimurium TA100; -S9, 1.0 µM/plate): 1.1
- TA100 revertants/plate (S. typhimurium TA100; -S9, 1.0 µM/plate): 101.5 ± 4.9 revertants/plate
- TA100 MR (mutagenicity ratio) (S. typhimurium TA100; -S9, 10.0 µM/plate): 1.1
- TA100 revertants/plate (S. typhimurium TA100; -S9, 10.0 µM/plate): 104.5 ± 9.2 revertants/plate
- TA100 MR (mutagenicity ratio) (S. typhimurium TA100; -S9, 50.0 µM/plate): 0.9
- TA100 revertants/plate (S. typhimurium TA100; -S9, 50.0 µM/plate): 87.5 ± 7.8 revertants/plate
- TA100 MR (mutagenicity ratio) (S. typhimurium TA100; -S9, 100.0 µM/plate): 1.0
- TA100 revertants/plate (S. typhimurium TA100; -S9, 100.0 µM/plate): 99.5 ± 0.7 revertants/plate

— article PMC8123576 (International Journal of Molecular Sciences, 2021)
